Test results from patent US20210196672A1, “COMPOSITIONS COMPRISING 3'-O-METHYL-5-O-SULFATE EPICATECHIN AND THERAPEUTIC USES OF SUCH COMPOSITIONS” (NESTEC S.A., priority 2016, published 2021).

System: endothelial nitric oxide synthase
Test: eNOS phosphorylation level in isolated aortic rat rings (western blot)
Format: cell-based
Conditions: isolated thoracic aortic rings of male adult Wistar rats, 1 h incubation, relative to the control (DMSO 1%) and chemically similar epicatechins, FIG. 2
Experimental: Comparative experiments were conducted on the expression of endothelial nitric oxide synthase in isolated aortic rat rings.
Thoracic aortas were obtained from male adults Wistar rats after euthanasia. Each aorta was carefully dissected and harvested cleaned of excess tissue and cut into three equal segments, approximately 7 mm long. All aortic rings were pre-incubated for 30 min in Krebs solution (20 mM Hepes buffer, pH 7.4, containing 119 mM NaCl, 4.7 mM KCl, 1 mM MgSO4, 0.4 mM NaH2PO4, 0.15 mM Na2HPO4, 5 mM NaHCO3, 1.25 mM CaCl2, 5.5 mM glucose) aerated with 95% 02 and 5% CO2 at 37° C. and then incubated with vehicle (DMSO 1%) or the different metabolites for 1 h. Metabolites were first dissolved in DMSO 1% and tested in a final concentration […]. At the end of the incubation period aortic rings were frozen at −70° C. until the homogenate preparation. Homogenates for western blot and western blot determinations were carried out by the regular procedures and phosphorylation level of endothelial nitric oxide synthase was evaluated.

## COc1cc([C@H]2Oc3cc(O)cc(OS(=O)(=O)O)c3C[C@H]2O)ccc1O [3′-O-methyl-5-O-sulfate epicatechin]
  eNOS phosphorylation: increased eNOS phosphorylation relative to the control and chemically similar epicatechins
